Source: article PMC11941939, “Tackling Prostate Cancer with Theranostic E5B9-Bombesin Target Modules (TMs): From Imaging to Treatment with UniCAR T-Cells” (International Journal of Molecular Sciences, 2025)
Read-outs that look alike come from different tables or passages of the source. Starred links: 1 amine or outer side, 2 acyl side, 3 side chain; linkers in the order of their positions; H or OH if unused. Positions of bridges follow the written chain, without caps; N, C: chain ends. Non-standard residues stand in square brackets, D forms with d. Residues, ends and D or L forms follow the SMILES beside them. Chains are numbered I, II in the order given. *: point of attachment. NOTA(2S-Bn(4-NHCS)) = O=C(O)CN1CCN(CC(=O)O)C[C@H](Cc2ccc(NC(=S)*)cc2)N(CC(=O)O)CC1; X1 = O=C([C@H](CCCCn1nnc2c1-c1ccccc1CN([*:3])c1ccccc1-2)N[*:1])[*:2]; X2 = O=C(CCOCCOCCOCCOCCNC(=O)CCN1C(=O)CC([*:1])C1=O)NCCC(=O)[*:2]; γ4hIle = CC[C@H](C)[C@@H](CCC(=O)[*:2])N[*:1]; Tle = CC(C)(C)[C@H](N)C(=O)O; Ava = NCCCCC(=O)O; Sar = CNCC(=O)O

Key:
GRPR = molecular target: T1, GRPR (Homo sapiens, UniProt P30550); assay: Competitive binding assay against 125I-Tyr4-bombesin in PC3 cells
T1 construct: Both cell lines express GRPR; endogenous in cells; host or cells: PC-3 cells (dimeric TM also tested in LNCaP cells)
Description: Then, ^125I-Tyr^4-BBN (0.05 nM final concentration) was added to each well, and the plates were incubated for 2 h at 4 °C. The cells were then rinsed twice with ice-cold phosphate-buffered saline (PBS) and harvested. The cells were placed on a Packard II gamma counter (PerkinElmer, Boston, MA, USA) to determine the cell-associated radioactivity. After decay correction, data were plotted using GraphPad Prism 9 Software (San Diego, CA, USA) using the sigmoidal dose–response equation, with counts per minute (cpm) of radioactivity bound versus the log of the concentration of NOTA-E5B9-BBN2 monomeric or dimeric TM for the determination of IC50 values. NOTA-E5B9-BBN2 dimeric TM was also tested in LNCaP cells. Gastrin-releasing peptide (GRP) served as the control.

PC3 cancer cells = format: cell-based, human; details: 48 h
Description: (§1) Standard chromium (^51Cr)-release cytotoxicity assays were performed to assess the killing of tumor cells by redirected UniCAR T-cells as previously described. Briefly, chromium-labeled target cells were incubated for 48 h with UniCAR T-cells at an effector-to-target cell (E:T) ratio of 5:1 in the absence or presence of different TM concentrations. The radioactive signal in the supernatants was measured using a MicroBeta Microplate Counter (PerkinElmer, Rodgau, Germany).

LNCaP cancer cells = format: cell-based, human; details: 48 h
Description: as §1

[1] = Dynamic PET imaging, tumor uptake in LNCaP xenografts; format: in vivo, mouse; details: male, BALB/c Nude, mouse, in vivo, iv, total radioactivity
Description: (§2) For PET experiments and as prostate cancer xenograft models, male PC3 and LNCaP tumor-bearing BALB/c Nude mice were used (body weight: 22−24 g, Charles River Laboratories, Saint-Constant, QC, Canada). To generate the tumor xenografts, about 5−6 × 10^6 PC3 cells in 100 μL of PBS or 20−25 × 10^6 LNCaP cells in 200 μL of PBS/Matrigel (50/50) were subcutaneously injected into the left shoulder of male BALB/c Nude mice. For the androgen-dependent LNCaP model, a 1.5 mg pellet containing dehydroepiandrosterone DHEA (60-day release; Innovative Research of America, Sarasota, FL, U.S.A.) was implanted subcutaneously into the upper right flank shortly before LNCaP cell injection. PC3 tumors and LNCaP tumors reached sizes of ∼300−500 mm^3 after 3−5 weeks and 6−8 weeks, respectively, and were used for the in vivo experiments. PET imaging of E5B9-^68Ga-NOTA-BBN2 monomeric and dimeric TMs was performed on an INVEON® PET/CT scanner (Siemens Preclinical Solutions, Knoxville, TN, USA). Prior to radiotracer injection, mice were anesthetized through inhalation of isoflurane in 40% oxygen/60% nitrogen (gas flow 1 L/min), and body temperature was kept constant at 37 °C. The mice were placed in a prone position in the center of the field of view. A transmission scan for attenuation correction was not acquired. Mice were injected with 4−8 MBq of E5B9-^68Ga-NOTA-BBN2 or E5B9-^68Ga-NOTA-(BBN2)2 in 150 μL 10% EtOH/saline solution through a tail vein catheter. For blocking studies, PC3- and LNCaP-tumor-bearing […] mice were pre-dosed i.v. with 300 μg of Ava-BBN2 (15 min prior to radiotracer injection) in 50 uL saline. Data acquisition was performed over 60 min in 3D list mode. The dynamic list mode data were sorted into sinograms with 54 time frames (10 × 2, 8 × 5, 6 × 10, 6 × 20, 8 × 60, 10 × 120, 6 × 300 s). The frames were reconstructed using maximum a posteriori (MAP) as the reconstruction mode. No correction for partial volume effects was applied. The image files were processed using the ROVER v2.0.51 software (ABX GmbH, Radeberg, Germany). […] ROIs covered all visible tumor mass of the subcutaneous tumors, and the thresholds were defined by 50% of the maximum radioactivity uptake level. Mean standardized uptake values [SUVmean = (activity/mL tissue)/(injected activity/body weight), […]] were calculated for each ROI, and time−activity curves (TACs) were generated. For each experimental group (different radiotracers and mouse tumor models as well as control and blocking experiments), n = 3–6 mice were measured. […] Blocking experiments were conducted in the same mice: first, a control scan was measured and then repeated 1–2 days after in the presence of a blocking concentration of 300 μg of Ava-BBN2. All semi-quantified PET data are presented as means ± SEM. […]

PC3 tumors = assay: Dynamic PET imaging, tumor uptake in PC3 xenografts; format: in vivo, mouse; details: PC3 tumors, pre-dosing i.v. with 300 µg Ava-BBN2 15 min before radiotracer, n = 3, p < 0.05
Description: as §2

[2] = as above; format: in vivo, mouse; details: male, BALB/c Nude, mouse, in vivo, iv, total radioactivity
Description: as §2

[3] = competition against 125I-Tyr4-bombesin (0.05 nM) in PC3 cells, 2 h at 4 °C, triplicates, gamma counter, mean ± SEM, read-out: IC50 (competition binding to GRPR)

T1 sequence (P30550 whole entry): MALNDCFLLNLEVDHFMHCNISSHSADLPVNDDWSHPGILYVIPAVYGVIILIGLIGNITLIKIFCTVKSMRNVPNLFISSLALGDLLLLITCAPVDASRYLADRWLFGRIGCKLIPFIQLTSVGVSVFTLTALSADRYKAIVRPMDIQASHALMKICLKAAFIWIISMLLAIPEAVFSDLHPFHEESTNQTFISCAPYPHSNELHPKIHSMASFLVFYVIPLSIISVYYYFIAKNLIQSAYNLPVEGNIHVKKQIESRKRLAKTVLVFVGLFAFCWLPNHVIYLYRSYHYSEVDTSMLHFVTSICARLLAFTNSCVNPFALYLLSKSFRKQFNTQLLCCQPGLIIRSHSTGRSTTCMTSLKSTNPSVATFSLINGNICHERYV

| IC50 (GRPR; [3]) [µM] | SMILES | SUV at 1 h [1] [SUV] | SUV at 1 h [2] [SUV] | also measured |
| --- | --- | --- | --- | --- |
| 0.19 ± 4e-05 | CC[C@H](C)[C@@H](CCC(=O)N[C@H](C(N)=O)C(C)(C)C)NC(=O)[C@H](Cc1c[nH]cn1)NC(=O)CN(C)C(=O)[C@@H](NC(=O)[C@H](C)NC(=O)[C@H](Cc1c[nH]c2ccccc12)NC(=O)[C@H](CCC(N)=O)NC(=O)[C@H](CCCCn1nnc2c1-c1ccccc1CN(C(=O)CCNC(=O)CCOCCOCCOCCOCCNC(=O)CCN1C(=O)CC(SC[C@H](NC(=O)[C@H](Cc3ccc(O)cc3)NC(=O)[C@H](CCC(=O)O)NC(=O)[C@H](CC(=O)O)NC(=O)[C@@H](NC(=O)[C@@H](NC(=O)[C@H](CCC(=O)O)NC(=O)[C@@H]3CCCN3C(=O)[C@H](CC(C)C)NC(=O)[C@@H]3CCCN3C(=O)[C@H](CCCCN)NC(=O)[C@@H](N)CO)C(C)C)[C@@H](C)O)C(=O)O)C1=O)c1ccccc1-2)NC(=O)CCCCNC(=S)Nc1ccc(C[C@H]2CN(CC(=O)O)CCN(CC(=O)O)CCN2CC(=O)O)cc1)C(C)C (stereo partly drawn) [E5B9-NOTA-BBN2 TM] (I: H-SKPLPEVTDEYC-OH / II: {NOTA(2S-Bn(4-NHCS))-Ava}-[X1]QWAV[Sar]H[γ4hIle][Tle]-NH2; linker I:12-II:1 via X2) | – | – | EC50 (PC3 cancer cells): 0.032 µM; EC50 (LNCaP cancer cells): 0.0298 µM |
| 0.0007 ± 0.0001 | CC[C@H](C)[C@@H](CCC(=O)N[C@H](C(N)=O)C(C)(C)C)NC(=O)[C@H](Cc1c[nH]cn1)NC(=O)CN(C)C(=O)[C@@H](NC(=O)[C@H](C)NC(=O)[C@H](Cc1c[nH]c2ccccc12)NC(=O)[C@H](CCC(N)=O)NC(=O)CCCCNC(=O)CC[C@H](NC(=O)[C@H](CCCCn1nnc2c1-c1ccccc1CN(C(=O)CCNC(=O)CCOCCOCCOCCOCCNC(=O)CCN1C(=O)CC(SC[C@H](NC(=O)[C@H](Cc3ccc(O)cc3)NC(=O)[C@H](CCC(=O)O)NC(=O)[C@H](CC(=O)O)NC(=O)[C@@H](NC(=O)[C@@H](NC(=O)[C@H](CCC(=O)O)NC(=O)[C@@H]3CCCN3C(=O)[C@H](CC(C)C)NC(=O)[C@@H]3CCCN3C(=O)[C@H](CCCCN)NC(=O)[C@@H](N)CO)C(C)C)[C@@H](C)O)C(=O)O)C1=O)c1ccccc1-2)NC(=O)CCCCNC(=S)Nc1ccc(C[C@H]2CN(CC(=O)O)CCN(CC(=O)O)CCN2CC(=O)O)cc1)C(=O)NCCCCC(=O)N[C@@H](CCC(N)=O)C(=O)N[C@@H](Cc1c[nH]c2ccccc12)C(=O)N[C@@H](C)C(=O)N[C@H](C(=O)N(C)CC(=O)N[C@@H](Cc1c[nH]cn1)C(=O)N[C@H](CCC(=O)N[C@H](C(N)=O)C(C)(C)C)[C@@H](C)CC)C(C)C)C(C)C (stereo partly shown) [E5B9-NOTA-(BBN2)2 TM] | – | – | – |
| – | CC[C@H](C)[C@@H](CCC(=O)N[C@H](C(N)=O)C(C)(C)C)NC(=O)[C@H](Cc1c[nH]cn1)NC(=O)CN(C)C(=O)[C@@H](NC(=O)[C@H](C)NC(=O)[C@H](Cc1c[nH]c2ccccc12)NC(=O)[C@H](CCC(N)=O)NC(=O)[C@H](CCCCn1nnc2c1-c1ccccc1CN(C(=O)CCNC(=O)CCOCCOCCOCCOCCNC(=O)CCN1C(=O)CC(SC[C@H](NC(=O)[C@H](Cc3ccc(O)cc3)NC(=O)[C@H](CCC(=O)O)NC(=O)[C@H](CC(=O)O)NC(=O)[C@@H](NC(=O)[C@@H](NC(=O)[C@H](CCC(=O)O)NC(=O)[C@@H]3CCCN3C(=O)[C@H](CC(C)C)NC(=O)[C@@H]3CCCN3C(=O)[C@H](CCCCN)NC(=O)[C@@H](N)CO)C(C)C)[C@@H](C)O)C(=O)O)C1=O)c1ccccc1-2)NC(=O)CCCCNC(=S)Nc1ccc(C[C@H]2CN(CC(=O)O)CCN(CC(=O)O)CCN2CC(=O)O)cc1)C(C)C (stereo partly drawn) [monomeric ^68Ga-BBN2 TM, metal not drawn] (I: H-SKPLPEVTDEYC-OH / II: {NOTA(2S-Bn(4-NHCS))-Ava}-[X1]QWAV[Sar]H[γ4hIle][Tle]-NH2; linker I:12-II:1 via X2) | 0.44 ± 0.11 | 0.44 ± 0.01 | in vivo blocking of tumor uptake (PC3 tumors): 39 ± 9% |
| – | CC[C@H](C)[C@@H](CCC(=O)N[C@H](C(N)=O)C(C)(C)C)NC(=O)[C@H](Cc1c[nH]cn1)NC(=O)CN(C)C(=O)[C@@H](NC(=O)[C@H](C)NC(=O)[C@H](Cc1c[nH]c2ccccc12)NC(=O)[C@H](CCC(N)=O)NC(=O)CCCCNC(=S)Nc1ccc(C[C@H]2CN(CC(=O)O)CCN(CC(=O)O)CCN2CC(=O)O)cc1)C(C)C [^68Ga-NOTA-BBN2, metal not drawn, reference compound] ({NOTA(2S-Bn(4-NHCS))-Ava}-QWAV[Sar]H[γ4hIle][Tle]-NH2; N-terminus and C-terminus assumed) | 0.38 ± 0.02 | 0.46 ± 0.05 | – |
| – | CSCC[C@H](NC(=O)[C@H](CC(C)C)NC(=O)[C@H](Cc1c[nH]cn1)NC(=O)CNC(=O)[C@@H](NC(=O)[C@H](C)NC(=O)[C@H](Cc1c[nH]c2ccccc12)NC(=O)[C@H](Cc1c[nH]cn1)NC(=O)[C@H](CC(N)=O)NC(=O)CNC(=O)[C@H](CCCN=C(N)N)NC(=O)[C@@H]1CCCN1C(=O)[C@H](Cc1ccc(O)cc1)NC(=O)[C@H](CCSC)NC(=O)[C@H](CCCCN)NC(=O)[C@@H](NC(=O)[C@H](CC(C)C)NC(=O)[C@@H](NC(=O)[C@@H](NC(=O)CNC(=O)CNC(=O)CNC(=O)[C@H](C)NC(=O)[C@@H]1CCCN1C(=O)[C@H](CC(C)C)NC(=O)[C@@H]1CCCN1C(=O)[C@@H](N)C(C)C)[C@@H](C)O)C(C)C)[C@@H](C)O)C(C)C)C(N)=O [GRP, gastrin-releasing peptide, reference compound] | – | – | IC50 (GRPR): 0.00015 ± 5e-05 µM |
